{
  "source": "patent US20200069691A1",
  "about": "“HETEROCYCLIC COMPOUNDS AS HIV PROTEASE INHIBITORS” (Merck Sharp & Dohme Corp., priority 2016, published 2020)",
  "molecular_target": "T1, wild-type HIV-1 protease (Human immunodeficiency virus type 1 group M subtype B, UniProt P04585)",
  "T1 construct": "Escherichia coli expressed wild-type HIV-1 protease protein",
  "test": "Assay for Inhibition of Microbial Expressed HIV Protease (peptide substrate cleavage, LC-MS/MS readout)",
  "format": "biochemical",
  "details": "E. coli expressed wild-type HIV-1 protease, mean of at least two independent experiments, read-out: HIV Pr Enzyme HIV1 PR IC50",
  "outline": "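E. coli-expressed wild-type HIV-1 protease ([…]) was preincubated with inhibitor 30 min at room temperature in pH 5.5 acetate buffer (100 mM NaCl, 0.1% BSA). Then 400 μM octapeptide substrate was added and reacted 1 h at 30 °C; inhibition came from LC-MS/MS product peak areas, mean of ≥2 experiments.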",
  "data": [
    {"smiles": "N#Cc1ncc2c(n1)CN(C(=O)c1ccnc(CN3C(=N)NC(c4ccccc4)(c4ccccc4)C3=O)c1)C2", "note": "[Compound 397, 6-({2-[(2-imino-5-oxo-4,4-diphenylimidazolidin-1-yl)methyl]pyridin-4-yl}carbonyl)-6,7-dihydro-5H-pyrrolo[3,4-d]pyrimidine-2-carbonitrile]", "values": [
      {"measurement": "IC50", "result": 18.1, "unit": "nM"}
    ]},
    {"smiles": "N=C1NC(c2ccc(F)cc2)(c2ccc(F)cc2)C(=O)N1Cc1cc(C(=O)N2Cc3ccccc3C2)ccn1", "note": "[Compound 398, 3-{[4-(1,3-dihydro-2H-isoindol-2-ylcarbonyl)pyridin-2-yl]methyl}-5,5-bis(4-fluorophenyl)-2-iminoimidazolidin-4-one]", "values": [
      {"measurement": "IC50", "result": 19.2, "unit": "nM"}
    ]},
    {"smiles": "N=C1NC(c2ccccc2)(c2ccccc2)C(=O)N1Cc1cc(C(=O)N2Cc3nccnc3C2)ccn1", "note": "[Compound 399, 3-{[4-(5,7-dihydro-6H-pyrrolo[3,4-b]pyrazin-6-ylcarbonyl)pyridin-2-yl]methyl}-2-imino-5,5-diphenylimidazolidin-4-one]", "values": [
      {"measurement": "IC50", "result": 20.4, "unit": "nM"}
    ]},
    {"smiles": "CC(C)CCC1(c2ccccc2)NC(=N)N(Cc2cc(C(=O)N3Cc4nccnc4C3)ccn2)C1=O", "note": "(stereo not drawn) [Compound 400, 3-{[4-(5,7-dihydro-6H-pyrrolo[3,4-b]pyrazin-6-ylcarbonyl)pyridin-2-yl]methyl}-2-imino-5-(3-methylbutyl)-5-phenylimidazolidin-4-one]", "values": [
      {"measurement": "IC50", "result": 25.6, "unit": "nM"}
    ]},
    {"smiles": "N=C1NC(c2ccccc2)(c2ccccc2)C(=O)N1Cc1cc(C(=O)N2Cc3cncnc3C2)ccn1", "note": "[Compound 401, 3-{[4-(5,7-dihydro-6H-pyrrolo[3,4-d]pyrimidin-6-ylcarbonyl)pyridin-2-yl]methyl}-2-imino-5,5-diphenylimidazolidin-4-one]", "values": [
      {"measurement": "IC50", "result": 31.4, "unit": "nM"}
    ]},
    {"smiles": "N=C1NC(c2ccc(F)cc2)(c2ccc(F)cc2)C(=O)N1Cc1cc(C(=O)N2Cc3nccnc3C2)ccn1", "note": "[Compound 402, 3-{[4-(5,7-dihydro-6H-pyrrolo[3,4-b]pyrazin-6-ylcarbonvl)pyridin-2-yl]methyl}-5,5-bis(4-fluorophenyl)-2-iminoimidazolidin-4-one]", "values": [
      {"measurement": "IC50", "result": 34.2, "unit": "nM"}
    ]},
    {"smiles": "CC(C)CC1(c2ccccc2)NC(=N)N(Cc2cc(C(=O)N3Cc4nccnc4C3)ccn2)C1=O", "note": "(stereo not drawn) [Compound 403, 3-{[4-(5,7-dihydro-6H-pyrrolo[3,4-b]pyrazin-6-ylcarbonyl)pyridin-2-yl]methyl}-2-imino-5-(2-methylpropyl)-5-phenylimidazolidin-4-one]", "values": [
      {"measurement": "IC50", "result": 54.3, "unit": "nM"}
    ]},
    {"smiles": "COC(=O)N1CCN(C(=O)c2ccnc(CN3C(=N)NC(c4ccc(F)cc4)(c4ccc(F)cc4)C3=O)c2)CC1", "note": "[Compound 404, methyl 4-[(2-{[4,4-bis(4-fluorophenyl)-2-imino-5-oxoimidazolidin-1-yl]methyl}pyridin-4-yl)carbonyl]piperazine-1-carboxylate]", "values": [
      {"measurement": "IC50", "result": 58.6, "unit": "nM"}
    ]},
    {"smiles": "COC(=O)N1CCN(C(=O)c2ccnc(CN3C(=N)NC(CCC(C)C)(c4ccccc4)C3=O)c2)CC1", "note": "(stereo not drawn) [Compound 405, methyl 4-[(2-{[2-imino4-(3-methylbutyl)-5-oxo-4-phenylimidazolidin-1-yl]methyl}pyridin-4-yl)carbonyl]piperazine-1-carboxylate]", "values": [
      {"measurement": "IC50", "result": 81.1, "unit": "nM"}
    ]},
    {"smiles": "Cc1cc(CN2C(=N)NC(c3ccc(F)cc3)(c3ccc(F)cc3)C2=O)cc(C(=O)N2Cc3nccnc3C2)n1", "note": "[Compound 406, 3-{[2-(5,7-dihydro-6H-pyrrolo[3,4-b]pyrazin-6-ylcarbonyl)-6-methylpyridin-4-yl]methyl}-5,5-bis(4-fluorophenyl)-2-iminoimidazolidin-4-one]", "values": [
      {"measurement": "IC50", "result": 10.6, "unit": "nM"}
    ]},
    {"smiles": "N=C1NC(c2ccccc2)(c2ccccc2)C(=O)N1Cc1cc(C(=O)N2Cc3nccnc3C2)cs1", "note": "[Compound 407, 3-{[4-(5,7-dihydro-6H-pyrrolo[3,4-b]pyrazin-6-ylcarbonyl)thiophen-2-yl]methyl}-2-imino-5,5-diphenylimidazolidin-4-one]", "values": [
      {"measurement": "IC50", "result": 73.8, "unit": "nM"}
    ]},
    {"smiles": "N=C1NC(c2ccccc2)(c2ccccc2)C(=O)N1Cc1cc(C(=O)N2Cc3cncnc3C2)cs1", "note": "[Compound 408, 3-{[4-(5,7-dihydro-6H-pyrrolo[3,4-d]pyrimidin-6-ylcarbonyl)thiophen-2-yl]methyl}-2-imino-5,5-diphenylimidazolidin-4-one]", "values": [
      {"measurement": "IC50", "result": 80.5, "unit": "nM"}
    ]}
  ]
}
